# According to US20050113450A1, “Antibacterial agents” (priority 2002, published 2005):
# Tested on: SA 9218
# Assay: MIC by standard agar dilution method
# Format: cell-based
# Settings: Mueller Hinton agar, 10^4 to 10^5 cells per spot, incubated overnight at 35° C., lowest concentration that inhibits visible growth
# Excerpt: The antibacterial agents of this invention have useful activity against a variety of organisms. The in vitro activity of compounds of this invention can be assessed by standard testing procedures such as the determination of minimum inhibitory concentration (MIC) by agar dilution as described in “Approved Standard. Methods for Dilution Antimicrobial Susceptibility Tests for Bacteria That Grow Aerobically”, 3rd. ed., published 1993 by the National Committee for Clinical Laboratory Standards, Villanova, Pa., USA. The in vitro MICs of test compounds were determined by a standard agar dilution method. A stock drug solution of each analog was prepared in the preferred solvent, usually DMSO:H2O (1:3). Serial 2-fold dilutions of each sample are made using 1.0 ml aliquots of sterile distilled water. To each 1.0 ml aliquot of drug was added 9 ml of molten Mueller Hinton agar medium. The drug-supplemented agar was mixed, poured into 15×100 mm petri dishes, and allowed to solidify and dry prior to inoculation. Vials of each of the test organisms are maintained frozen in the vapor phase of a liquid nitrogen freezer. Test cultures are grown overnight at 35° C. on the medium appropriate for the organism. Colonies are harvested with a sterile swab, and cell suspensions are prepared in Trypticase Soy broth (TSB) to equal the turbidity of a 0.5 McFarland standard. A 1:20 dilution of each suspension was made in TSB. The plates containing the drug supplemented agar are inoculated with a 0.001 ml drop of the cell suspension using a Steers replicator, yielding approximately 10^4 to 10^5 cells per spot. The plates are incubated overnight at 35° C. Following incubation the Minimum Inhibitory Concentration (MIC μg/ml), the lowest concentration of drug that inhibits visible growth of the organism, was read and recorded.
row,Compound,MIC [µg/mL]
1,O=C(Nc1ccc(-c2cccs2)cc1C(=O)O)c1ccc(S(=O)(=O)N2CCc3ccccc32)cc1,4
2,O=C(Nc1ccc(C(=NO)c2ccccc2)cc1C(=O)O)c1ccc(S(=O)(=O)N2CCc3ccccc32)cc1,128
3,CCON=C(c1ccccc1)c1ccc(NC(=O)c2ccc(S(=O)(=O)N3CCc4ccccc43)cc2)c(C(=O)O)c1,16
4,CCON=C(c1ccc(NC(=O)c2ccc(S(=O)(=O)N3CCc4ccccc43)cc2)c(C(=O)O)c1)C(C)C,64
5,O=C(Nc1ccc(I)cc1C(=O)O)c1ccc(S(=O)(=O)N2CCSC2)cc1,32
6,COC(=O)CCCC(=O)c1ccc(NC(=O)c2cccc(S(=O)(=O)N3CCc4ccc(Cl)cc43)c2)c(C(=O)O)c1,64
7,O=C(Nc1ccc(I)cc1C(=O)O)c1cccc(S(=O)(=O)N2CCSC2)c1,8
8,CCCCCC(=O)c1ccc(NC(=O)c2ccc(S(=O)(=O)N3CCc4ccc(Cl)cc43)cc2)c(C(=O)O)c1,8
9,O=C(Nc1ccc(Cl)cc1C(=O)O)c1ccc(C(=O)c2ccccc2)cc1,4
10,COc1cc(C(=O)c2cccc(C(=O)Nc3ccc(Cl)cc3C(=O)O)c2)cc(OC)c1OC,32
11,O=C(Nc1ccc(Cl)cc1C(=O)O)c1cccc(C(=O)c2ccc(Cl)cc2)c1,4
12,COc1ccc(C(=O)c2cccc(C(=O)Nc3ccc(Cl)cc3C(=O)O)c2)cc1,8
13,O=C(Nc1ccc(Cl)cc1C(=O)O)c1cccc(C(=O)c2ccco2)c1,8
14,O=C(COc1ccc(Cl)cc1)c1cccc(C(=O)Nc2ccc(Cl)cc2C(=O)O)c1,8
15,O=C(COc1ccc(Cl)cc1)c1ccc(C(=O)Nc2ccc(Cl)cc2C(=O)O)cc1,4
16,CCCCCOc1cccc(C(=O)Nc2ccc(Br)cc2C(=O)O)c1,8
17,COC(=O)C(Oc1ccc(C(=O)Nc2ccc(Br)cc2C(=O)O)cc1)c1ccccc1 (centres unmarked),64

row,Compound,MIC [µg/mL]
1,O=C(NCCOc1ccc(C(=O)Nc2ccc(Br)cc2C(=O)O)cc1)OCc1ccccc1,64
2,O=C(Nc1ccc(Br)cc1C(=O)O)c1ccc(OCCN2CCCC2=O)cc1,> 128
3,O=C(Nc1ccc(Cl)cc1C(=O)O)c1ccc(C(=NOCc2ccccc2)c2ccco2)cc1,32
4,O=C(Nc1ccc(Br)cc1C(=O)O)c1ccc(OCC2CCOC2)cc1 (centres unmarked),128
5,O=C(Nc1ccc(Cl)cc1C(=O)O)c1cccc(C(NCc2cccc(Cl)c2)c2ccco2)c1 (centres unmarked),8
6,O=C(Nc1ccc(Cl)cc1C(=O)O)c1cccc(C(NCc2cccc(Cl)c2)c2ccccc2)c1 (centres unmarked),16
7,CON=C(c1cccc(C(=O)Nc2ccc(Cl)cc2C(=O)O)c1)c1ccco1,16
8,O=C(Nc1ccc(Cl)cc1C(=O)O)c1cccc(C(NC2CCc3ccccc32)c2ccccc2)c1 (centres unmarked),16
9,CCCNC(c1cccc(C(=O)Nc2ccc(Cl)cc2C(=O)O)c1)c1ccco1 (centres unmarked),16
10,CCCNC(c1ccccc1)c1cccc(C(=O)Nc2ccc(Cl)cc2C(=O)O)c1 (centres unmarked),8
11,O=C(Nc1ccc(Cl)cc1C(=O)O)c1cccc(C(NC2CCCC2)c2ccccc2)c1 (centres unmarked),4
12,CCCNC(c1cccc(C#N)c1)c1cccc(C(=O)Nc2ccc(Cl)cc2C(=O)O)c1 (centres unmarked),8
13,CCC(CC)C(=O)c1ccc(C(=O)Nc2ccc(Cl)cc2C(=O)O)cc1,4
14,O=C(Nc1ccc(Cl)cc1C(=O)O)c1cccc(C(=NO)C2CCCO2)c1 (centres unmarked),16
15,CCCNC(c1cccnc1)c1cccc(C(=O)Nc2ccc(Cl)cc2C(=O)O)c1 (centres unmarked),8
16,N#Cc1cccc(C(=NO)c2ccc(C(=O)Nc3ccc(Cl)cc3C(=O)O)cc2)c1,8
17,CS(=O)(=O)c1cccc(C(=NO)c2ccc(C(=O)Nc3ccc(Cl)cc3C(=O)O)cc2)c1,16

# Now from value to compound:
row,MIC [µg/mL],Compound
1,16,CCCC(=O)c1ccc(NC(=O)c2ccc(S(=O)(=O)N3CCc4ccc(Cl)cc43)cc2)c(C(=O)O)c1
2,32,O=C(Nc1ccc(I)cc1C(=O)O)c1ccc(S(=O)(=O)N2CC=CC2)cc1
3,4,N#CC1(c2ccccc2)CCN(S(=O)(=O)c2ccc(C(=O)Nc3ccc(I)cc3C(=O)O)cc2)CC1
4,32,O=C(Nc1ccc(C(=O)C2CCCC2)cc1C(=O)O)c1cccc(S(=O)(=O)N2CCc3ccc(Cl)cc32)c1
5,> 128,COC(=O)CCCC(=O)c1ccc(NC(=O)c2cccc(S(=O)(=O)N3CCSC3)c2)c(C(=O)O)c1
6,8,O=C(Nc1ccc(I)cc1C(=O)O)c1cccc(S(=O)(=O)N2CC=CC2)c1
7,32,O=C(Nc1ccc(I)cc1C(=O)O)c1cccc(S(=O)(=O)N2CCN(c3ccccn3)CC2)c1
8,16,O=C(Nc1ccc(C(=O)C2CCCC2)cc1C(=O)O)c1ccc(S(=O)(=O)N2CCc3ccc(Cl)cc32)cc1
9,8,O=C(Nc1ccc(Cl)cc1C(=O)O)c1cccc(I)c1
10,2,O=C(Nc1ccc(Cl)cc1C(=O)O)c1ccc(I)cc1
11,2,O=C(Nc1ccc(Cl)cc1C(=O)O)c1ccc(I)c(I)c1
12,128,O=C(Nc1ccc(Cl)cc1C(=O)O)c1ccccc1
13,8,CCCCCC(=O)c1cccc(C(=O)Nc2ccc(Cl)cc2C(=O)O)c1
14,4,CCCCCC(=O)c1ccc(C(=O)Nc2ccc(Cl)cc2C(=O)O)cc1
15,8,O=C(Nc1ccc(Cl)cc1C(=O)O)c1cccc(C(=O)C2CCCC2)c1
16,4,CN(C)c1ccc(C(=O)c2cccc(C(=O)Nc3ccc(Cl)cc3C(=O)O)c2)cc1
17,4,O=C(Nc1ccc(Cl)cc1C(=O)O)c1cccc(C(=O)c2ccc3c(c2)OCO3)c1
18,2,COc1ccc(C(=O)c2ccc(C(=O)Nc3ccc(Cl)cc3C(=O)O)cc2)cc1
19,4,COc1cc(C(=O)c2ccc(C(=O)Nc3ccc(Cl)cc3C(=O)O)cc2)cc(OC)c1OC

row,MIC [µg/mL],Compound
1,4,O=C(Nc1ccc(Cl)cc1C(=O)O)c1ccc(C(=O)c2ccc(Cl)cc2)cc1
2,> 128,Cl.NCc1ccc(C(=O)Nc2ccc(Br)cc2C(=O)O)cc1S(=O)(=O)N1CCc2ccccc21
3,4,O=C(Nc1ccc(Cl)cc1C(=O)O)c1ccc(C(=O)c2ccco2)cc1
4,2,O=C(Nc1ccc(Cl)cc1C(=O)O)c1ccc(C(=O)c2ccc3c(c2)OCO3)cc1
5,2,CC(C)Oc1cccc(C(=O)Nc2ccc(Br)cc2C(=O)O)c1
6,8,COc1cc(COc2ccc(C(=O)Nc3ccc(Br)cc3C(=O)O)cc2)cc(OC)c1
7,0.5,Cc1ccc(S(=O)(=O)Nc2cccc(C(=O)Nc3ccc(Br)cc3C(=O)O)c2)cc1
8,32,Cc1ncsc1CCOc1ccc(C(=O)Nc2ccc(Br)cc2C(=O)O)cc1
9,8,CCC(CC)C(=O)c1cccc(C(=O)Nc2ccc(Cl)cc2C(=O)O)c1
10,128,O=C(Nc1ccc(Cl)cc1C(=O)O)c1cccc(C(=O)C2CCOC2)c1 (centres unmarked)
11,4,O=C(Nc1ccc(Cl)cc1C(=O)O)c1cccc(C(=NO)c2cccnc2)c1
12,64,O=C(Nc1ccc(Cl)cc1C(=O)O)c1cccc(C(=O)C2CCCO2)c1 (centres unmarked)
13,32,CCCNC(c1cccc(C(=O)Nc2ccc(Cl)cc2C(=O)O)c1)c1cccc(S(C)(=O)=O)c1 (centres unmarked)
14,16,CS(=O)(=O)c1cccc(C(=O)c2cccc(C(=O)Nc3ccc(Cl)cc3C(=O)O)c2)c1
15,8,O=C(Nc1ccc(Cl)cc1C(=O)O)c1ccc(C(=O)c2c[nH]c3ccccc23)cc1
16,32,O=C(Nc1ccc(Cl)cc1C(=O)O)c1ccc(C(=NO)c2cccnc2)cc1
17,16,CCOCC(=O)c1ccc(C(=O)Nc2ccc(Cl)cc2C(=O)O)cc1
18,32,CS(=O)(=O)c1cccc(C(=O)c2ccc(C(=O)Nc3ccc(Cl)cc3C(=O)O)cc2)c1
